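Five concentrations, 48 hours, 96-well plates. GI50 is the concentration that inhibits growth by half.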 Active and inactive are the calls of the source. No stated cut-off is given here; in the data, active = GI50 up to about 1.1 µM and inactive = higher.
Key:
Assay in all cases: growth of human tumour cells (NCI), 48 h
786-0 = system: 786-0
CAKI-1 = system: CAKI-1
CCRF-CEM = system: CCRF-CEM
COLO 205 = system: COLO 205
EKVX = system: EKVX
HOP-62 = system: HOP-62
K562 = system: K562
M14 = system: M14
Malme-3M = system: Malme-3M
NCI-H226 = system: NCI-H226
NCI-H460 = system: NCI-H460
NCI/ADR-RES = system: NCI/ADR-RES
OVCAR-5 = system: OVCAR-5
RXF 393 = system: RXF 393
SF-268 = system: SF-268
SF-539 = system: SF-539
SK-MEL-5 = system: SK-MEL-5
SK-OV-3 = system: SK-OV-3
U-251 = system: U-251
UO-31 = system: UO-31

Structure (SMILES) | GI50 (786-0) | GI50 (CAKI-1) | GI50 (CCRF-CEM) | GI50 (COLO 205) | GI50 (EKVX) | GI50 (HOP-62) | GI50 (K562) | GI50 (M14) | GI50 (Malme-3M) | GI50 (NCI-H226) | GI50 (NCI-H460) | GI50 (NCI/ADR-RES) | GI50 (OVCAR-5) | GI50 (RXF 393) | GI50 (SF-268) | GI50 (SF-539) | GI50 (SK-MEL-5) | GI50 (SK-OV-3) | GI50 (U-251) | GI50 (UO-31)
Clc1nc2c(C#Cc3ccccc3)ncnc2n1C1CCCCO1 (centres undefined) | 11.6 µM (inactive) | 10 µM (inactive) | 5.15 µM (inactive) | 15.4 µM (inactive) | 2.55 µM (inactive) | 31.2 µM (inactive) | 30.3 µM (inactive) | 12.1 µM (inactive) | 17.6 µM (inactive) | 71.3 µM (inactive) | 15.7 µM (inactive) | 25.8 µM (inactive) | 12.6 µM (inactive) | 10.4 µM (inactive) | 14 µM (inactive) | 14.3 µM (inactive) | 11.6 µM (inactive) | 27.6 µM (inactive) | 12.6 µM (inactive) | 11.9 µM (inactive)
CCOC(=O)c1c(CN2CCCC2)n(-c2ccccc2)c2cc(Br)c(OC)cc12 | 15 µM (inactive) | 41.6 µM (inactive) | 8.87 µM (inactive) | 11.8 µM (inactive) | 20 µM (inactive) | 8.75 µM (inactive) | 16.2 µM (inactive) | 16.3 µM (inactive) | 16.7 µM (inactive) | 13.3 µM (inactive) | 6.89 µM (inactive) | 15.2 µM (inactive) | 19.5 µM (inactive) | 0.574 µM (active) | 46.6 µM (inactive) | 23.6 µM (inactive) | 12.3 µM (inactive) | 25.5 µM (inactive) | 16.1 µM (inactive) | 11.5 µM (inactive)
CN(C)/N=C1\C=C2CC[C@H](O[Si](C)(C)C(C)(C)C)[C@@]2(C)CC1 | 18 µM (inactive) | 14.3 µM (inactive) | 11.8 µM (inactive) | 16.9 µM (inactive) | 21.7 µM (inactive) | 17.9 µM (inactive) | 15.5 µM (inactive) | 18.2 µM (inactive) | 15.6 µM (inactive) | 20.3 µM (inactive) | 17.3 µM (inactive) | 18.2 µM (inactive) | 16.9 µM (inactive) | 14.2 µM (inactive) | 19.7 µM (inactive) | 26.2 µM (inactive) | 12.4 µM (inactive) | 24.9 µM (inactive) | 16.2 µM (inactive) | 16.3 µM (inactive)
CCOc1c(OC)cc(-c2nc3n(n2)C(=O)C(CC)S3)cc1OC (centres undefined) | > 10 µM (inactive) | > 10 µM (inactive) | > 10 µM (inactive) | > 10 µM (inactive) | > 10 µM (inactive) | > 10 µM (inactive) | > 10 µM (inactive) | > 10 µM (inactive) | > 10 µM (inactive) | > 10 µM (inactive) | > 10 µM (inactive) | > 10 µM (inactive) | > 10 µM (inactive) | > 10 µM (inactive) | > 10 µM (inactive) | > 10 µM (inactive) | > 10 µM (inactive) | > 10 µM (inactive) | > 10 µM (inactive) | 
COc1ccc(C(=O)/C=C/c2ccc(O)c(O)c2)c(OC)c1 | 5.21 µM (inactive) | 6.27 µM (inactive) | 0.508 µM (active) | 15.1 µM (inactive) | 11.8 µM (inactive) | 4.32 µM (inactive) | 0.442 µM (active) | 3.99 µM (inactive) | 4.65 µM (inactive) | 6.64 µM (inactive) | 3.04 µM (inactive) | 2.75 µM (inactive) | 15.6 µM (inactive) | 8.18 µM (inactive) | 1.4 µM (inactive) | 0.834 µM (active) | 1.85 µM (inactive) | 5.15 µM (inactive) | 1.7 µM (inactive) | 9.33 µM (inactive)
COc1cc2c(/C=C3/C(=O)Nc4ccccc43)c(Cl)n(Cc3ccc(Cl)cc3)c2cc1C | 0.323 µM (active) | 0.263 µM (active) | 0.29 µM (active) | 0.256 µM (active) | 1.18 µM (inactive) | 0.237 µM (active) | 0.365 µM (active) | 0.296 µM (active) | 0.843 µM (active) | 0.336 µM (active) | 0.359 µM (active) | 0.225 µM (active) | 0.656 µM (active) | 0.339 µM (active) | 0.675 µM (active) | 0.27 µM (active) | 0.384 µM (active) | 0.305 µM (active) | 0.307 µM (active) | 0.826 µM (active)
CC1(C)OC(=O)CC12CCN(Cc1ccccc1)CC2 | > 100 µM (inactive) | > 100 µM (inactive) | > 100 µM (inactive) | > 100 µM (inactive) | > 100 µM (inactive) | > 100 µM (inactive) | > 100 µM (inactive) |  | > 100 µM (inactive) | > 100 µM (inactive) |  | > 100 µM (inactive) | > 100 µM (inactive) | > 100 µM (inactive) | > 100 µM (inactive) | > 100 µM (inactive) | > 100 µM (inactive) | > 100 µM (inactive) | > 100 µM (inactive) | > 100 µM (inactive)
CC(C)(C)NC(=O)/C(=C\Sc1ccccc1)c1ccccc1 | > 100 µM (inactive) | > 100 µM (inactive) | 40.6 µM (inactive) | > 71 µM (inactive) | > 74.6 µM (inactive) | > 100 µM (inactive) | 32.7 µM (inactive) | > 100 µM (inactive) | > 100 µM (inactive) | > 72.1 µM (inactive) | > 100 µM (inactive) | > 29 µM (inactive) | > 100 µM (inactive) | > 100 µM (inactive) |  | > 64 µM (inactive) | 52.5 µM (inactive) | > 100 µM (inactive) | > 100 µM (inactive) | > 100 µM (inactive)
CC1CN(c2cc3c(cc2F)c(=O)c(C(=O)O)cn3-c2ccc(N3CCN(C)CC3)cn2)CC(C)N1 (centres undefined) | > 100 µM (inactive) | > 100 µM (inactive) | > 100 µM (inactive) | 52.8 µM (inactive) | > 100 µM (inactive) | 89.9 µM (inactive) | 65.6 µM (inactive) | > 100 µM (inactive) | > 100 µM (inactive) | > 100 µM (inactive) | > 100 µM (inactive) | > 100 µM (inactive) | > 100 µM (inactive) | > 100 µM (inactive) | > 100 µM (inactive) | > 100 µM (inactive) |  | > 100 µM (inactive) | 70.5 µM (inactive) | > 100 µM (inactive)
CCOC(=O)C1(C#N)C(=O)c2cc[n+](CC[n+]3ccc4c(c3)C(=O)C(C#N)(C(=O)OCC)C4=O)cc2C1=O (centres undefined) | > 100 µM (inactive) | > 100 µM (inactive) | > 100 µM (inactive) | > 10 µM (inactive) | > 100 µM (inactive) |  | 86.1 µM (inactive) | > 100 µM (inactive) | 60.4 µM (inactive) | > 100 µM (inactive) | > 100 µM (inactive) | > 100 µM (inactive) | > 100 µM (inactive) | > 100 µM (inactive) | 96.8 µM (inactive) | > 100 µM (inactive) | 18.4 µM (inactive) | > 100 µM (inactive) | > 100 µM (inactive) | > 100 µM (inactive)
Cc1ccc(O)c(C(c2ccc(C(c3cc(C)ccc3O)c3cc(C)ccc3O)cc2)c2cc(C)ccc2O)c1 | 1.67 µM (inactive) | 1.56 µM (inactive) | 2.28 µM (inactive) | 1.33 µM (inactive) | 1.87 µM (inactive) | 1.92 µM (inactive) | 1.77 µM (inactive) | 1.8 µM (inactive) | 1.88 µM (inactive) | 1.86 µM (inactive) |  | 1.88 µM (inactive) | 1.84 µM (inactive) | 1.79 µM (inactive) | 1.62 µM (inactive) | 1.75 µM (inactive) | 1.77 µM (inactive) | 1.68 µM (inactive) | 1.98 µM (inactive) | 1.85 µM (inactive)
CCOC(=O)COc1ccc2c(C)cc(=O)oc2c1 | > 100 µM (inactive) | > 100 µM (inactive) | > 100 µM (inactive) | > 100 µM (inactive) | > 100 µM (inactive) | > 100 µM (inactive) | > 100 µM (inactive) | > 100 µM (inactive) | > 100 µM (inactive) | > 100 µM (inactive) | 45.8 µM (inactive) | > 100 µM (inactive) | > 100 µM (inactive) | > 100 µM (inactive) | > 100 µM (inactive) | > 100 µM (inactive) | > 100 µM (inactive) |  | > 100 µM (inactive) | > 100 µM (inactive)
O=C1c2ccccc2-c2nnc3c(c21)-c1ccccc1C3 | > 100 µM (inactive) | 65.6 µM (inactive) | 89.3 µM (inactive) | 46.6 µM (inactive) | 18.5 µM (inactive) |  |  | > 100 µM (inactive) | > 100 µM (inactive) | 43.5 µM (inactive) | 29.2 µM (inactive) | > 100 µM (inactive) | > 100 µM (inactive) | > 100 µM (inactive) | > 100 µM (inactive) | 93.8 µM (inactive) | 66.8 µM (inactive) | > 100 µM (inactive) | 67 µM (inactive) | 23.2 µM (inactive)
CC(=O)Oc1ccc(/C=C/C(=O)NCC(NC(=O)/C=C/c2ccc(OC(C)=O)c(OC(C)=O)c2)C(=O)O)cc1OC(C)=O (centres undefined) | > 100 µM (inactive) | > 100 µM (inactive) | 32 µM (inactive) | > 100 µM (inactive) | > 100 µM (inactive) | > 100 µM (inactive) | 56.2 µM (inactive) | > 100 µM (inactive) | > 100 µM (inactive) | > 100 µM (inactive) | > 100 µM (inactive) | > 100 µM (inactive) | > 100 µM (inactive) | > 100 µM (inactive) | > 100 µM (inactive) | > 100 µM (inactive) | > 100 µM (inactive) |  | > 100 µM (inactive) | > 100 µM (inactive)

From ChEMBL document CHEMBL1201862, “PubChem BioAssay data set” (2004)
